Test results: article PMC5218480 (PLoS ONE, 2017)

Tested on: MV-4-11 cells
Assay: Gene expression microarray analysis (Affymetrix PrimeView) and GSEA
Format: cell-based, human
Design: RFU PODN (11730768_x_at) / Fold change /veh PODN (11730768_x_at) / RFU LINC00158 (11744669_a_at) / Fold change /veh LINC00158 (11744669_a_at) / RFU DUSP10 (11751237_a_at) / Fold change /veh DUSP10 (11751237_a_at) / RFU ID3 (11757404_x_at) / Fold change /veh ID3 (11757404_x_at) / RFU PLEKHG5 (11737974_s_at) / Fold change /veh PLEKHG5 (11737974_s_at) / RFU LRRC4B (11730491_at) / Fold change /veh LRRC4B (11730491_at) / RFU GIMAP4 (11747438_a_at) / Fold change /veh GIMAP4 (11747438_a_at) / RFU KRT8 (11758183_x_at) / Fold change /veh KRT8 (11758183_x_at) / RFU CNN1 (11734310_a_at) / Fold change /veh CNN1 (11734310_a_at) / RFU VPS37D (11726825_at) / Fold change /veh VPS37D (11726825_at) / RFU C10orf10 (11716522_x_at) / Fold change /veh C10orf10 (11716522_x_at) / RFU KIR2DL2 /// KIR2DL4 /// KIR2DL5A /// KIR2DL5B /// KIR2DS1 /// KIR2DS2 /// KIR2DS3 /// KIR2DS4 /// KIR3DL3 /// KIR3DL3 /// KIR3DS1 (11738374_at) / Fold change /veh KIR2DL2 /// KIR2DL4 /// KIR2DL5A /// KIR2DL5B /// KIR2DS1 /// KIR2DS2 /// KIR2DS3 /// KIR2DS4 /// KIR3DL3 /// KIR3DL3 /// KIR3DS1 (11738374_at) / RFU C1QL1 (11718748_at) / Fold change /veh C1QL1 (11718748_at) / RFU TMPRSS4 (11747572_a_at) / Fold change /veh TMPRSS4 (11747572_a_at) / RFU HAMP (11756126_x_at) / Fold change /veh HAMP (11756126_x_at) / RFU RNFT2 (11725882_a_at) / Fold change /veh RNFT2 (11725882_a_at) / RFU NR4A2 (11747474_a_at) / Fold change /veh NR4A2 (11747474_a_at) / RFU ABCC12 (11746883_a_at) / Fold change /veh ABCC12 (11746883_a_at) / RFU TMEM136 (11760407_x_at) / Fold change /veh TMEM136 (11760407_x_at) / RFU CLDN22 /// WWC2 (11732394_at) / Fold change /veh CLDN22 /// WWC2 (11732394_at) / RFU HLA-DPB1 (11760878_x_at) / Fold change /veh HLA-DPB1 (11760878_x_at) / RFU SPINT1 (11716480_a_at) / Fold change /veh SPINT1 (11716480_a_at) / RFU GAP43 (11754022_s_at) / Fold change /veh GAP43 (11754022_s_at) / RFU A4GNT (11735810_at) / Fold change /veh A4GNT (11735810_at) / RFU PRB3 (11715151_x_at) / Fold change /veh PRB3 (11715151_x_at) / RFU TUBB4B (11761932_at) / Fold change /veh TUBB4B (11761932_at) / RFU CAPN14 (11732068_a_at) / Fold change /veh CAPN14 (11732068_a_at) / RFU TMCC2 (11721928_a_at) / Fold change /veh TMCC2 (11721928_a_at) / RFU IRGQ (11745062_a_at) / Fold change /veh IRGQ (11745062_a_at) / RFU FAM174B (11720279_a_at) / Fold change /veh FAM174B (11720279_a_at) / RFU TMPRSS4 (11748680_a_at) / Fold change /veh TMPRSS4 (11748680_a_at) / RFU FAM212B (11763350_a_at) / Fold change /veh FAM212B (11763350_a_at) / RFU PLEKHG5 (11743358_a_at) / Fold change /veh PLEKHG5 (11743358_a_at) / RFU ZSCAN30 (11745921_a_at) / Fold change /veh ZSCAN30 (11745921_a_at) / RFU CMKLR1 (11741424_a_at) / Fold change /veh CMKLR1 (11741424_a_at) / RFU LOC101060620 /// MAPK8IP1 (11723275_at) / Fold change /veh LOC101060620 /// MAPK8IP1 (11723275_at) / RFU SPTSSB (11747773_x_at) / Fold change /veh SPTSSB (11747773_x_at) / RFU PRSS12 (11739890_at) / Fold change /veh PRSS12 (11739890_at) / RFU BIN1 (11741810_x_at) / Fold change /veh BIN1 (11741810_x_at) / RFU WNT11 (11732464_a_at) / Fold change /veh WNT11 (11732464_a_at) / RFU C10orf10 (11716521_a_at) / Fold change /veh C10orf10 (11716521_a_at) / RFU C5orf56 (11738089_at) / Fold change /veh C5orf56 (11738089_at) / RFU CYB561 (11721691_x_at) / Fold change /veh CYB561 (11721691_x_at) / RFU ANKRD19P (11752326_a_at) / Fold change /veh ANKRD19P (11752326_a_at) / RFU OR2T12 /// OR2T33 /// OR2T8 (11738714_s_at) / Fold change /veh OR2T12 /// OR2T33 /// OR2T8 (11738714_s_at) / RFU VCAN (11748164_a_at) / Fold change /veh VCAN (11748164_a_at) / RFU JSRP1 (11732532_at) / Fold change /veh JSRP1 (11732532_at) / RFU KRTAP10-11 (11738290_x_at) / Fold change /veh KRTAP10-11 (11738290_x_at) / RFU MYO3A (11730013_a_at) / Fold change /veh MYO3A (11730013_a_at) / RFU EBF3 (11725865_a_at) / Fold change /veh EBF3 (11725865_a_at) / RFU CAMK2N1 (11719241_x_at) / Fold change /veh CAMK2N1 (11719241_x_at) / RFU C5orf56 (11738088_a_at) / Fold change /veh C5orf56 (11738088_a_at) / RFU OLFML3 (11715873_a_at) / Fold change /veh OLFML3 (11715873_a_at) / RFU LOC100653217 /// NTM (11731650_a_at) / Fold change /veh LOC100653217 /// NTM (11731650_a_at) / RFU MAPK11 (11762145_a_at) / Fold change /veh MAPK11 (11762145_a_at) / RFU FIZ1 (11724087_x_at) / Fold change /veh FIZ1 (11724087_x_at) / RFU OASL (11726364_x_at) / Fold change /veh OASL (11726364_x_at) / RFU SOX15 (11748057_x_at) / Fold change /veh SOX15 (11748057_x_at) / RFU CD79A (11719716_a_at) / Fold change /veh CD79A (11719716_a_at) / RFU HIST1H1D (11736915_at) / Fold change /veh HIST1H1D (11736915_at) / RFU CASKIN2 (11723855_a_at) / Fold change /veh CASKIN2 (11723855_a_at) / RFU LOC730098 (11760151_x_at) / Fold change /veh LOC730098 (11760151_x_at) / RFU OR4N2 (11742367_at) / Fold change /veh OR4N2 (11742367_at) / RFU PRRT2 (11749266_a_at) / Fold change /veh PRRT2 (11749266_a_at) / RFU SNX32 (11753110_a_at) / Fold change /veh SNX32 (11753110_a_at) / RFU CDHR5 (11726645_a_at) / Fold change /veh CDHR5 (11726645_a_at) / RFU RCAN1 (11760418_a_at) / Fold change /veh RCAN1 (11760418_a_at) / RFU FAM167A (11723789_a_at) / Fold change /veh FAM167A (11723789_a_at) / RFU FAM26E (11764081_at) / Fold change /veh FAM26E (11764081_at) / RFU ISYNA1 (11749810_s_at) / Fold change /veh ISYNA1 (11749810_s_at) / RFU ACY1 (11761880_at) / Fold change /veh ACY1 (11761880_at) / RFU 11764098_at / Fold change /veh 11764098_at / RFU SAMD14 (11745864_x_at) / Fold change /veh SAMD14 (11745864_x_at) / RFU NPB (11741838_a_at) / Fold change /veh NPB (11741838_a_at) / RFU TMPRSS6 (11731388_a_at) / Fold change /veh TMPRSS6 (11731388_a_at) / RFU KRTAP10-2 (11738614_at) / Fold change /veh KRTAP10-2 (11738614_at) / RFU ARHGAP8 /// PRR5-ARHGAP8 (11727945_x_at) / Fold change /veh ARHGAP8 /// PRR5-ARHGAP8 (11727945_x_at) / RFU KRTAP5-7 /// NADSYN1 (11734609_at) / Fold change /veh KRTAP5-7 /// NADSYN1 (11734609_at) / RFU RASL12 (11751679_a_at) / Fold change /veh RASL12 (11751679_a_at) / RFU CDKN2B (11736163_a_at) / Fold change /veh CDKN2B (11736163_a_at) / RFU PRF1 (11729649_at) / Fold change /veh PRF1 (11729649_at) / RFU, ZNF638 /// ZNF638-IT1 / Fold change vs veh, ZNF638 /// ZNF638-IT1 / RFU, PANK3 / Fold change vs veh, PANK3 / RFU, SH3YL1 / Fold change vs veh, SH3YL1 / RFU, ZEB2 / Fold change vs veh, ZEB2 / RFU, NRIP1 / Fold change vs veh, NRIP1 / RFU, PTTG1IP / Fold change vs veh, PTTG1IP / RFU, CAPN2 / Fold change vs veh, CAPN2 / RFU, MED14 / Fold change vs veh, MED14 / RFU, SNORA58 / Fold change vs veh, SNORA58 / RFU, C1orf63 / Fold change vs veh, C1orf63 / RFU, LRRFIP1 / Fold change vs veh, LRRFIP1 / RFU, NDUFAF7 / Fold change vs veh, NDUFAF7 / RFU, SLC12A2 / Fold change vs veh, SLC12A2 / RFU, IBTK / Fold change vs veh, IBTK / RFU, ESF1 / Fold change vs veh, ESF1 / Fold change vs veh, TMEM50B / RFU, TAOK1 / Fold change vs veh, TAOK1 / RFU, ACBD3 / Fold change vs veh, ACBD3 / RFU, TMA16 / Fold change vs veh, TMA16 / RFU, RWDD3 / Fold change vs veh, RWDD3 / RFU, BCAT1 / Fold change vs veh, BCAT1 / RFU, EDEM3 / Fold change vs veh, EDEM3 / RFU, TMEM33 / Fold change vs veh, TMEM33 / RFU, WDR75 / Fold change vs veh, WDR75 / RFU, AHCTF1 / Fold change vs veh, AHCTF1 / RFU, TFRC / Fold change vs veh, TFRC / RFU, ZDHHC17 / Fold change vs veh, ZDHHC17 / RFU, NOM1 / Fold change vs veh, NOM1 / RFU, ARL8B / Fold change vs veh, ARL8B / RFU, ZBTB11 / Fold change vs veh, ZBTB11 / RFU, TAMM41 / Fold change vs veh, TAMM41 / RFU, KIAA1704 /// LOC100996395 / Fold change vs veh, KIAA1704 /// LOC100996395 / RFU, ING1 / Fold change vs veh, ING1 / RFU, TRMT61B / Fold change vs veh, TRMT61B / RFU, FUBP3 / Fold change vs veh, FUBP3 / RFU, TP53 / Fold change vs veh, TP53 / RFU, TNKS2 / Fold change vs veh, TNKS2 / RFU, ZFP14 / Fold change vs veh, ZFP14 / RFU, ACTR2 / Fold change vs veh, ACTR2 / RFU, PPP3R1 / Fold change vs veh, PPP3R1 / RFU, PIK3R1 / Fold change vs veh, PIK3R1 / RFU, HNRNPA1 / Fold change vs veh, HNRNPA1 / RFU, RNF170 / Fold change vs veh, RNF170 / RFU, ZNF28 / Fold change vs veh, ZNF28 / RFU, RNGTT / Fold change vs veh, RNGTT / RFU, OGT / Fold change vs veh, OGT / RFU, BRD1 / Fold change vs veh, BRD1 / RFU, MARS / Fold change vs veh, MARS / RFU, ZNF655 / Fold change vs veh, ZNF655 / RFU, FAHD1 / Fold change vs veh, FAHD1 / RFU, BDP1 / Fold change vs veh, BDP1 / RFU, LRRCC1 / Fold change vs veh, LRRCC1 / RFU, ARID1A / Fold change vs veh, ARID1A / RFU, ZNF146 / Fold change vs veh, ZNF146 / RFU, ZNF330 / Fold change vs veh, ZNF330 / RFU, GPN3 / Fold change vs veh, GPN3 / RFU, C9orf123 / Fold change vs veh, C9orf123 / RFU, N4BP2L2 / Fold change vs veh, N4BP2L2 / RFU, ARFIP1 / Fold change vs veh, ARFIP1 / RFU, FAM179B / Fold change vs veh, FAM179B / RFU, BCL10 / Fold change vs veh, BCL10 / RFU, UHRF1BP1L / Fold change vs veh, UHRF1BP1L / RFU, BET1 / Fold change vs veh, BET1 / RFU, CNOT2 / Fold change vs veh, CNOT2 / RFU, ZNF268 / Fold change vs veh, ZNF268 / Fold change vs veh, ZNF507 / RFU, DGCR2 / Fold change vs veh, DGCR2 / RFU, WDSUB1 / Fold change vs veh, WDSUB1 / Fold change vs veh, HSP90B1 /// MIR3652 / RFU, ADSS / Fold change vs veh, ADSS / RFU, GK / Fold change vs veh, GK / RFU, ZNF148 / Fold change vs veh, ZNF148 / RFU, TAF9 / Fold change vs veh, TAF9 / RFU, SLC1A5 / Fold change vs veh, SLC1A5 / RFU, SLMO2 / Fold change vs veh, SLMO2 / RFU, ABCC4 / Fold change vs veh, ABCC4 / RFU, LOC101060439 /// RAP1B / Fold change vs veh, LOC101060439 /// RAP1B / RFU, RFX7 / Fold change vs veh, RFX7 / RFU, GTPBP10 / Fold change vs veh, GTPBP10 / RFU, CNEP1R1 / Fold change vs veh, CNEP1R1 / RFU, BIVM-ERCC5 /// ERCC5 / Fold change vs veh, BIVM-ERCC5 /// ERCC5 / RFU, ILF3 / Fold change vs veh, ILF3 / RFU 11762660_at / Fold change /veh 11762660_at / RFU VCAN (11757783_s_at) / Fold change /veh VCAN (11757783_s_at) / RFU DDX43 (11728927_at) / Fold change /veh DDX43 (11728927_at) / RFU KRT8 (11758188_x_at) / Fold change /veh KRT8 (11758188_x_at) / RFU NKD1 (11759106_at) / Fold change /veh NKD1 (11759106_at) / RFU SRD5A1 (11742802_a_at) / Fold change /veh SRD5A1 (11742802_a_at) / RFU TPSAB1 /// TPSB2 (11721975_s_at) / Fold change /veh TPSAB1 /// TPSB2 (11721975_s_at) / RFU GSTM3 (11746129_a_at) / Fold change /veh GSTM3 (11746129_a_at) / RFU IL23R (11737362_x_at) / Fold change /veh IL23R (11737362_x_at) / RFU TMEM51 (11727254_a_at) / Fold change /veh TMEM51 (11727254_a_at) / RFU PIWIL2 (11732686_x_at) / Fold change /veh PIWIL2 (11732686_x_at) / RFU ORM1 (11744905_x_at) / Fold change /veh ORM1 (11744905_x_at) / RFU CCDC152 (11743942_at) / Fold change /veh CCDC152 (11743942_at) / RFU ECM1 (11717891_a_at) / Fold change /veh ECM1 (11717891_a_at) / RFU IL23R (11748794_a_at) / Fold change /veh IL23R (11748794_a_at) / RFU TNFAIP8L3 (11732012_x_at) / Fold change /veh TNFAIP8L3 (11732012_x_at) / RFU MBOAT4 (11741988_at) / Fold change /veh MBOAT4 (11741988_at) / RFU 11764193_at / Fold change /veh 11764193_at / RFU TMEM53 (11763286_at) / Fold change /veh TMEM53 (11763286_at) / RFU MAGEB2 (11727129_at) / Fold change /veh MAGEB2 (11727129_at) / RFU TMEM200A (11744735_a_at) / Fold change /veh TMEM200A (11744735_a_at) / RFU CCDC152 (11751479_a_at) / Fold change /veh CCDC152 (11751479_a_at) / RFU FAM211A (11726209_a_at) / Fold change /veh FAM211A (11726209_a_at) / RFU RGS16 (11746705_a_at) / Fold change /veh RGS16 (11746705_a_at) / RFU VCAN (11755009_s_at) / Fold change /veh VCAN (11755009_s_at) / RFU RHOB (11743442_s_at) / Fold change /veh RHOB (11743442_s_at) / RFU RGS16 (11720943_a_at) / Fold change /veh RGS16 (11720943_a_at) / RFU RGS16 (11720944_at) / Fold change /veh RGS16 (11720944_at) / RFU, VPS4B / Fold change vs veh, VPS4B / RFU, CREB1 / Fold change vs veh, CREB1 / RFU, DNAJC13 / Fold change vs veh, DNAJC13 / RFU, GNAQ / Fold change vs veh, GNAQ / RFU, CDK5R1 / Fold change vs veh, CDK5R1 / RFU, ZRANB3 / Fold change vs veh, ZRANB3 / RFU, CUL4A / Fold change vs veh, CUL4A / RFU, CCNY / Fold change vs veh, CCNY / RFU, UFL1 / Fold change vs veh, UFL1 / RFU, COG3 / Fold change vs veh, COG3 / RFU, DIAPH2 / Fold change vs veh, DIAPH2 / RFU, SKA2 / Fold change vs veh, SKA2 / RFU, AFF3 / Fold change vs veh, AFF3 / RFU, LMF1 / Fold change vs veh, LMF1 / RFU, IPO11 / Fold change vs veh, IPO11 / RFU, DFFB / Fold change vs veh, DFFB / RFU, FOXP1 / Fold change vs veh, FOXP1 / RFU, CARD8 / Fold change vs veh, CARD8 / RFU, STRN3 / Fold change vs veh, STRN3 / RFU, ADK / Fold change vs veh, ADK / RFU, RASSF2 / Fold change vs veh, RASSF2 / RFU, WIPF1 / Fold change vs veh, WIPF1 / RFU, LARP1B / Fold change vs veh, LARP1B / RFU, RASA1 / Fold change vs veh, RASA1 / RFU, RB1 / Fold change vs veh, RB1 / RFU, PPFIA1 / Fold change vs veh, PPFIA1 / RFU, MAT2A / Fold change vs veh, MAT2A / RFU, CCT5 / Fold change vs veh, CCT5 / RFU, WDR92 / Fold change vs veh, WDR92 / RFU, CUX1 / Fold change vs veh, CUX1 / RFU, TTC7A / Fold change vs veh, TTC7A / RFU, TMEM135 / Fold change vs veh, TMEM135 / RFU, DEPTOR / Fold change vs veh, DEPTOR / RFU, CPM / Fold change vs veh, CPM / RFU, DNAJB6 / Fold change vs veh, DNAJB6 / RFU, CACNA2D3 / Fold change vs veh, CACNA2D3 / RFU, DTX4 / Fold change vs veh, DTX4 / RFU, TFCP2 / Fold change vs veh, TFCP2 / RFU, GMCL1 /// GMCL1P1 / Fold change vs veh, GMCL1 /// GMCL1P1 / RFU, AEBP2 / Fold change vs veh, AEBP2 / RFU, SNHG1 /// SNORD22 /// SNORD25 /// SNORD26 /// SNORD27 /// SNORD28 /// SNORD29 /// SNORD31 / Fold change vs veh, SNHG1 /// SNORD22 /// SNORD25 /// SNORD26 /// SNORD27 /// SNORD28 /// SNORD29 /// SNORD31 / Fold change (Aza/veh), C12orf56 (ProbeSet 11735607_a_at) / Fold change (ACY-1035/veh), C12orf56 (ProbeSet 11735607_a_at) / Fold change (Aza/veh), FGFR1OP (ProbeSet 11751329_s_at) / Fold change (ACY-1035/veh), FGFR1OP (ProbeSet 11751329_s_at) / Fold change (Aza/veh), VPS36 (ProbeSet 11739960_a_at) / Fold change (ACY-1035/veh), VPS36 (ProbeSet 11739960_a_at) / RFU SYPL1 (11715823_x_at) / Fold change /veh SYPL1 (11715823_x_at) / RFU IGFBP7 (11715501_s_at) / Fold change /veh IGFBP7 (11715501_s_at) / RFU REEP3 (11722064_at) / Fold change /veh REEP3 (11722064_at) / RFU IGLL1 (11728026_x_at) / Fold change /veh IGLL1 (11728026_x_at): dose or concentration left out as unconfirmed
Settings: ProbeSet 11734937_a_at; LIST B

SMILES: Nc1ncn([C@@H]2O[C@H](CO)[C@@H](O)[C@H]2O)c(=O)n1 [azacitidine]
- Fold change vs veh, CNOT2: 0.93
